Test results: ChEMBL document CHEMBL6120977, “Structure-Affinity-Pharmacokinetics Relationships of Novel 18F-Labeled 1,4-Diazepane Derivatives for Orexin 1 Receptor Imaging” (J Med Chem, 2024)

How the values were obtained:
[1] = Biodistribution in male ddY mouse blood administered intravenously and measured at 2 mins postinjection by gamma counter analysis; type: ADME, organism-based; conditions: in vivo, iv
[2] = Biodistribution in male ddY mouse blood administered intravenously and measured at 10 mins postinjection by gamma counter analysis; type: ADME, organism-based; conditions: in vivo, iv
[3] = Biodistribution in male ddY mouse blood administered intravenously and measured at 30 mins postinjection by gamma counter analysis; type: ADME, organism-based; conditions: in vivo, iv, 0.5 h
[4] = Biodistribution in male ddY mouse blood administered intravenously and measured at 60 mins postinjection by gamma counter analysis; type: ADME, organism-based; conditions: in vivo, iv, 1 h
[5] = Biodistribution in male ddY mouse spleen administered intravenously and measured at 2 mins postinjection by gamma counter analysis; type: ADME, organism-based; conditions: in vivo, iv
[6] = Biodistribution in male ddY mouse spleen administered intravenously and measured at 10 mins postinjection by gamma counter analysis; type: ADME, organism-based; conditions: in vivo, iv
[7] = Biodistribution in male ddY mouse spleen administered intravenously and measured at 30 mins postinjection by gamma counter analysis; type: ADME, organism-based; conditions: in vivo, iv, 0.5 h
[8] = Biodistribution in male ddY mouse spleen administered intravenously and measured at 60 mins postinjection by gamma counter analysis; type: ADME, organism-based; conditions: in vivo, iv, 1 h
[9] = Biodistribution in male ddY mouse pancreas administered intravenously and measured at 2 mins postinjection by gamma counter analysis; type: ADME, organism-based; conditions: in vivo, iv
[10] = Biodistribution in male ddY mouse pancreas administered intravenously and measured at 10 mins postinjection by gamma counter analysis; type: ADME, organism-based; conditions: in vivo, iv
[11] = Biodistribution in male ddY mouse pancreas administered intravenously and measured at 30 mins postinjection by gamma counter analysis; type: ADME, organism-based; conditions: in vivo, iv, 0.5 h
[12] = Biodistribution in male ddY mouse pancreas administered intravenously and measured at 60 mins postinjection by gamma counter analysis; type: ADME, organism-based; conditions: in vivo, iv, 1 h
[13] = Biodistribution in male ddY mouse stomach administered intravenously and measured per organ at 2 mins postinjection by gamma counter analysis; type: ADME, organism-based; conditions: in vivo, iv
[14] = Biodistribution in male ddY mouse stomach administered intravenously and measured per organ at 10 mins postinjection by gamma counter analysis; type: ADME, organism-based; conditions: in vivo, iv
[15] = Biodistribution in male ddY mouse stomach administered intravenously and measured per organ at 30 mins postinjection by gamma counter analysis; type: ADME, organism-based; conditions: in vivo, iv, 0.5 h
[16] = Biodistribution in male ddY mouse stomach administered intravenously and measured per organ at 60 mins postinjection by gamma counter analysis; type: ADME, organism-based; conditions: in vivo, iv, 1 h
[17] = Biodistribution in male ddY mouse intestine administered intravenously and measured at 2 mins postinjection by gamma counter analysis; type: ADME, organism-based; conditions: in vivo, iv
[18] = Biodistribution in male ddY mouse intestine administered intravenously and measured at 10 mins postinjection by gamma counter analysis; type: ADME, organism-based; conditions: in vivo, iv
[19] = Biodistribution in male ddY mouse intestine administered intravenously and measured at 30 mins postinjection by gamma counter analysis; type: ADME, organism-based; conditions: in vivo, iv, 0.5 h
[20] = Biodistribution in male ddY mouse intestine administered intravenously and measured at 60 mins postinjection by gamma counter analysis; type: ADME, organism-based; conditions: in vivo, iv, 1 h
[21] = Biodistribution in male ddY mouse kidney administered intravenously and measured at 2 mins postinjection by gamma counter analysis; type: ADME, organism-based; conditions: in vivo, iv
[22] = Biodistribution in male ddY mouse kidney administered intravenously and measured at 10 mins postinjection by gamma counter analysis; type: ADME, organism-based; conditions: in vivo, iv
[23] = Biodistribution in male ddY mouse kidney administered intravenously and measured at 30 mins postinjection by gamma counter analysis; type: ADME, organism-based; conditions: in vivo, iv, 0.5 h
[24] = Biodistribution in male ddY mouse kidney administered intravenously and measured at 60 mins postinjection by gamma counter analysis; type: ADME, organism-based; conditions: in vivo, iv, 1 h
[25] = Biodistribution in male ddY mouse liver administered intravenously and measured at 2 mins postinjection by gamma counter analysis; type: ADME, organism-based; conditions: in vivo, iv
[26] = Biodistribution in male ddY mouse liver administered intravenously and measured at 10 mins postinjection by gamma counter analysis; type: ADME, organism-based; conditions: in vivo, iv
[27] = Biodistribution in male ddY mouse liver administered intravenously and measured at 30 mins postinjection by gamma counter analysis; type: ADME, organism-based; conditions: in vivo, iv, 0.5 h
[28] = Biodistribution in male ddY mouse liver administered intravenously and measured at 60 mins postinjection by gamma counter analysis; type: ADME, organism-based; conditions: in vivo, iv, 1 h
[29] = Biodistribution in male ddY mouse heart administered intravenously and measured at 2 mins postinjection by gamma counter analysis; type: ADME, organism-based; conditions: in vivo, iv
[30] = Biodistribution in male ddY mouse heart administered intravenously and measured at 10 mins postinjection by gamma counter analysis; type: ADME, organism-based; conditions: in vivo, iv
[31] = Biodistribution in male ddY mouse heart administered intravenously and measured at 30 mins postinjection by gamma counter analysis; type: ADME, organism-based; conditions: in vivo, iv, 0.5 h
[32] = Biodistribution in male ddY mouse heart administered intravenously and measured at 60 mins postinjection by gamma counter analysis; type: ADME, organism-based; conditions: in vivo, iv, 1 h
[33] = Biodistribution in male ddY mouse lung administered intravenously and measured at 2 mins postinjection by gamma counter analysis; type: ADME, organism-based; conditions: in vivo, iv
[34] = Biodistribution in male ddY mouse lung administered intravenously and measured at 10 mins postinjection by gamma counter analysis; type: ADME, organism-based; conditions: in vivo, iv
[35] = Biodistribution in male ddY mouse lung administered intravenously and measured at 30 mins postinjection by gamma counter analysis; type: ADME, organism-based; conditions: in vivo, iv, 0.5 h
[36] = Biodistribution in male ddY mouse lung administered intravenously and measured at 60 mins postinjection by gamma counter analysis; type: ADME, organism-based; conditions: in vivo, iv, 1 h
[37] = Biodistribution in male ddY mouse brain administered intravenously and measured at 2 mins postinjection by gamma counter analysis; type: ADME, organism-based; conditions: in vivo, iv
[38] = Biodistribution in male ddY mouse brain administered intravenously and measured at 10 mins postinjection by gamma counter analysis; type: ADME, organism-based; conditions: in vivo, iv
[39] = Biodistribution in male ddY mouse brain administered intravenously and measured at 30 mins postinjection by gamma counter analysis; type: ADME, organism-based; conditions: in vivo, iv, 0.5 h
[40] = Biodistribution in male ddY mouse brain administered intravenously and measured at 60 mins postinjection by gamma counter analysis; type: ADME, organism-based; conditions: in vivo, iv, 1 h
[41] = Biodistribution in male ddY mouse bone administered intravenously and measured at 2 mins postinjection by gamma counter analysis; type: ADME, organism-based, Bone element; conditions: in vivo, iv
[42] = Biodistribution in male ddY mouse bone administered intravenously and measured at 10 mins postinjection by gamma counter analysis; type: ADME, organism-based, Bone element; conditions: in vivo, iv
[43] = Biodistribution in male ddY mouse bone administered intravenously and measured at 30 mins postinjection by gamma counter analysis; type: ADME, organism-based, Bone element; conditions: in vivo, iv, 0.5 h
[44] = Biodistribution in male ddY mouse bone administered intravenously and measured at 60 mins postinjection by gamma counter analysis; type: ADME, organism-based, Bone element; conditions: in vivo, iv, 1 h
[45] = target: T1, Orexin/Hypocretin receptor type 1 (Homo sapiens, UniProt O43613); assay: Displacement of […]5IBOM from OX1R (unknown origin) transfected in CHO cells assessed as inhibition constant incubated for 1.5 hrs by automated gamma-counter analysis; type: cell-based
T1 sequence (O43613 whole entry): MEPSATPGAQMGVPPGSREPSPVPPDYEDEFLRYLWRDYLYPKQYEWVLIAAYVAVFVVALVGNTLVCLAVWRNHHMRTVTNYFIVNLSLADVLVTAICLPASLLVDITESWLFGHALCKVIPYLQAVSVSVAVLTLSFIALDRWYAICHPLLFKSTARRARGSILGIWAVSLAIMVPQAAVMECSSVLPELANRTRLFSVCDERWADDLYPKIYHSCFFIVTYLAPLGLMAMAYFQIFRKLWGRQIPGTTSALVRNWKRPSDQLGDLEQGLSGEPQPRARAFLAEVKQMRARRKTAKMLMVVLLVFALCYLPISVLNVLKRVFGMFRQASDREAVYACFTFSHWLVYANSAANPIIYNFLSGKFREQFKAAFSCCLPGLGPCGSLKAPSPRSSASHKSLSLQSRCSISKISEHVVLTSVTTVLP

[46] = target: T2, Orexin receptor type 2 (Homo sapiens, UniProt O43614); assay: Displacement of […]5IBOM from OX2R (unknown origin) transfected in CHO cells assessed as inhibition constant incubated for 1.5 hrs by automated gamma-counter analysis; type: cell-based
T2 sequence (O43614 whole entry): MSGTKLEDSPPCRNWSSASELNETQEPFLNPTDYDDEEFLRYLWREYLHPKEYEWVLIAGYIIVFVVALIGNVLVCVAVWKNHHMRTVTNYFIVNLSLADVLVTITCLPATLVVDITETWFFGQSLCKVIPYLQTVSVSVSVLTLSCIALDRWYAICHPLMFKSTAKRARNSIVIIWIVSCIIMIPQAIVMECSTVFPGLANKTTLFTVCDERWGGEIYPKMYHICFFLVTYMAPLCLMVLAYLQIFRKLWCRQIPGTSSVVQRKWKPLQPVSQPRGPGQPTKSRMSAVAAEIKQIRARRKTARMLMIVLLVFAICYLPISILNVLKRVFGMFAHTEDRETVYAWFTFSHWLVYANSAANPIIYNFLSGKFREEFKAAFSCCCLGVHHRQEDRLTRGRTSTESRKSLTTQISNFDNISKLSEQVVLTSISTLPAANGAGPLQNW

[47] = Selectivity ratio of Ki for OX2R (unknown origin) transfected in CHO cells to Ki for OX1R (unknown origin) transfected in CHO cells; type: cell-based

## Cc1ccc(-n2nccn2)c(C(=O)N2CCCN(c3nc4ccc([18F])cc4s3)C[C@@H]2C)c1
[1]
  Drug uptake: 4.44 % ID/g
[2]
  Drug uptake: 2.91 % ID/g
[3]
  Drug uptake: 1.44 % ID/g
[4]
  Drug uptake: 1.46 % ID/g
[5]
  Drug uptake: 2.92 % ID/g
[6]
  Drug uptake: 2.38 % ID/g
[7]
  Drug uptake: 0.9 % ID/g
[8]
  Drug uptake: 0.42 % ID/g
[9]
  Drug uptake: 5.89 % ID/g
[10]
  Drug uptake: 2.95 % ID/g
[11]
  Drug uptake: 0.67 % ID/g
[12]
  Drug uptake: 0.26 % ID/g
[13]
  Drug uptake: 1.15 %ID
[14]
  Drug uptake: 1.65 %ID
[15]
  Drug uptake: 1.35 %ID
[16]
  Drug uptake: 0.87 %ID
[17]
  Drug uptake: 3.33 % ID/g
[18]
  Drug uptake: 6.23 % ID/g
[19]
  Drug uptake: 11.8 % ID/g
[20]
  Drug uptake: 16.3 % ID/g
[21]
  Drug uptake: 10.3 % ID/g
[22]
  Drug uptake: 5.23 % ID/g
[23]
  Drug uptake: 1.89 % ID/g
[24]
  Drug uptake: 0.81 % ID/g
[25]
  Drug uptake: 13.3 % ID/g
[26]
  Drug uptake: 26.9 % ID/g
[27]
  Drug uptake: 14.7 % ID/g
[28]
  Drug uptake: 7.53 % ID/g
[29]
  Drug uptake: 7.6 % ID/g
[30]
  Drug uptake: 3.11 % ID/g
[31]
  Drug uptake: 1.23 % ID/g
[32]
  Drug uptake: 0.43 % ID/g
[33]
  Drug uptake: 6.58 % ID/g
[34]
  Drug uptake: 3.43 % ID/g
[35]
  Drug uptake: 1.2 % ID/g
[36]
  Drug uptake: 0.48 % ID/g
[37]
  Drug uptake: 2.42 % ID/g
[38]
  Drug uptake: 0.98 % ID/g
[39]
  Drug uptake: 0.22 % ID/g
[40]
  Drug uptake: 0.11 % ID/g
[41]
  Drug uptake: 3.11 % ID/g
[42]
  Drug uptake: 4.94 % ID/g
[43]
  Drug uptake: 13.2 % ID/g
[44]
  Drug uptake: 16 % ID/g

## Cc1ccc(-n2nccn2)c(C(=O)N2CCCN(c3nc4ccc(F)cc4s3)C[C@@H]2C)c1
[45]
  Ki: 2.14 nM
[46]
  Ki: 20.6 nM
[47]
  Ratio Ki: 9.63

## Cc1ccc(-n2nccn2)c(C(=O)N2CCCN(c3nc4cc(F)ccc4o3)C[C@@H]2C)c1
[45]
  Ki: 2.35 nM
[46]
  Ki: 8.64 nM
[47]
  Ratio Ki: 3.68
